Laboratory results taken from ChEMBL document CHEMBL3108664, “Macrocyclic drugs and clinical candidates: what can medicinal chemists learn from their properties?” (J Med Chem, 2014).
Blank lines part the entries; values can stand above or below the compound they belong to.

Columns and labels:
[1] = Oral bioavailability in human; type: ADME, organism-based; details: in vivo
[2] = Oral bioavailability in dog at 1 mg/kg; type: ADME, organism-based, Canis lupus familiaris; details: in vivo
[3] = Oral bioavailability in rat at 5 mg/kg; type: ADME, organism-based; details: in vivo
[4] = Oral bioavailability in mouse administered as bid; type: ADME, organism-based; details: in vivo
[5] = Half life in human at 25 mg, po administered through fat rich diet; type: ADME, organism-based; details: in vivo
[6] = Oral bioavailability in cancer patient at 75 mg, qd administered 5 days for every 2 weeks; type: ADME, organism-based; details: human, in vivo
[7] = Apparent permeability across apical to basolateral side of human Caco2 cells at 5 uM after 120 mins by LC/MS/MS analysis; type: ADME, cell-based; details: Caco-2
[8] = tested on: Homo sapiens; assay: Oral bioavailability in human at 3 to 15 mg/day; type: ADME, organism-based; details: in vivo

Compound: CO[C@H]1C[C@@H]2CC[C@@H](C)[C@@](O)(O2)C(=O)C(=O)N2CCCC[C@H]2C(=O)O[C@H]([C@H](C)C[C@@H]2CC[C@@H](OCCO)[C@H](OC)C2)CC(=O)[C@H](C)/C=C(\C)[C@@H](O)[C@@H](OC)C(=O)[C@H](C)C[C@H](C)/C=C/C=C/C=C/1C [EVEROLIMUS]
- bioavailability [1]: 20%

Compound: C=C[C@@H]1C[C@]1(NC(=O)[C@@H]1C[C@@H]2CN1C(=O)[C@H](C(C)(C)C)NC(=O)O[C@@H]1C[C@H]1CCCCCc1nc3ccc(OC)cc3nc1O2)C(=O)NS(=O)(=O)C1CC1 [GRAZOPREVIR ANHYDROUS]
- bioavailability [2]: 13%
- bioavailability [3]: 1%

Compound: COc1cc2ncnc3c2cc1OCCCCCN(C)Cc1ccc(Br)cc1N3 [JNJ-26483327]
- bioavailability [4]: 80%

Compound: IVERMECTIN
- F [8]: 60%

Second part, the compound after the results:

- half-life [5]: 4.17 days
Compound: CO[C@H]1/C=C/O[C@@]2(C)Oc3c(C)c(O)c4c(=O)c(c5oc6cc(N7CCN(CC(C)C)CC7)cc(O)c6nc-5c4c3C2=O)NC(=O)/C(C)=C\C=C\[C@H](C)[C@H](O)[C@@H](C)[C@@H](O)[C@@H](C)[C@H](OC(C)=O)[C@@H]1C [RIFALAZIL]

- bioavailability [1]: 50%
Compound: CO[C@H]1/C=C/O[C@@]2(C)Oc3c(C)c(O)c4c(O)c(c(/C=N/N5CCN(C)CC5)c(O)c4c3C2=O)NC(=O)/C(C)=C\C=C\[C@H](C)[C@H](O)[C@@H](C)[C@@H](O)[C@@H](C)[C@H](OC(C)=O)[C@@H]1C [RIFAMPIN]

- bioavailability [1]: 70%
Compound: CO[C@H]1/C=C/O[C@@]2(C)Oc3c(C)c(O)c4c(O)c(c(/C=N/N5CCN(C6CCCC6)CC5)c(O)c4c3C2=O)NC(=O)/C(C)=C\C=C\[C@H](C)[C@H](O)[C@@H](C)[C@@H](O)[C@@H](C)[C@H](OC(C)=O)[C@@H]1C [RIFAPENTINE]

- bioavailability [1]: 15%
Compound: C=CC[C@@H]1/C=C(\C)C[C@H](C)C[C@H](OC)[C@H]2O[C@@](O)(C(=O)C(=O)N3CCCC[C@H]3C(=O)O[C@H](/C(C)=C/[C@@H]3CC[C@@H](O)[C@H](OC)C3)[C@H](C)[C@@H](O)CC1=O)[C@H](C)C[C@@H]2OC [TACROLIMUS ANHYDROUS]

- bioavailability [6]: 1.5%
Compound: CO[C@H]1C[C@@H]2CC[C@@H](C)[C@@](O)(O2)C(=O)C(=O)N2CCCC[C@H]2C(=O)O[C@H]([C@H](C)C[C@@H]2CC[C@@H](OC(=O)C(C)(CO)CO)[C@H](OC)C2)CC(=O)[C@H](C)/C=C(\C)[C@@H](O)[C@@H](OC)C(=O)[C@H](C)C[C@H](C)/C=C/C=C/C=C/1C [TEMSIROLIMUS]

- Papp A→B at 2 h, 5 µM [7]: 28 ×10⁻⁶ cm/s
Compound: CN1C/C=C/CCOc2cccc(c2)-c2ccnc(n2)Nc2cccc(c2)C1 [ZOTIRACICLIB]
